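Where inhibition never reached the appropriate level, the endpoint shown equals the highest concentration tested. Otherwise, values were interpolated linearly from a five-concentration, 48-hour dose response in 96-well plates. GI50: concentration for 50% inhibition of growth.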 Calls of active or inactive are those of the source. Cut-off read from the data, not from the text of the source: active = GI50 up to about 1.1 µM and inactive = higher.
Legend:
Assay in all cases: NCI anticancer screen, dose series, 48 h
786-0 = test system: 786-0
A549 = test system: A549
ACHN = test system: ACHN
CCRF-CEM = test system: CCRF-CEM
COLO 205 = test system: COLO 205
DLD-1 = test system: DLD-1
DMS-114 = test system: DMS-114
EKVX = test system: EKVX
HCC 2998 = test system: HCC 2998
HCT-116 = test system: HCT-116
HL-60 = test system: HL-60
HOP-18 = test system: HOP-18
HOP-62 = test system: HOP-62
HOP-92 = test system: HOP-92
HT-29 = test system: HT-29
IGROV-1 = test system: IGROV-1
KM-20L2 = test system: KM-20L2
KM12 = test system: KM12
LOX IMVI = test system: LOX IMVI
LXFL 529 = test system: LXFL 529
M14 = test system: M14
M19-MEL = test system: M19-MEL
MOLT-4 = test system: MOLT-4
Malme-3M = test system: Malme-3M
NCI-H226 = test system: NCI-H226
NCI-H23 = test system: NCI-H23
NCI-H460 = test system: NCI-H460
OVCAR-3 = test system: OVCAR-3
OVCAR-4 = test system: OVCAR-4
OVCAR-5 = test system: OVCAR-5
OVCAR-8 = test system: OVCAR-8
RPMI-8226 = test system: RPMI-8226
RXF 393 = test system: RXF 393
RXF 631 = test system: RXF 631
SF-268 = test system: SF-268
SF-295 = test system: SF-295
SK-MEL-28 = test system: SK-MEL-28
SK-MEL-2 = test system: SK-MEL-2
SK-MEL-5 = test system: SK-MEL-5
SN12C = test system: SN12C
SNB-19 = test system: SNB-19
SNB-75 = test system: SNB-75
SNB-78 = test system: SNB-78
SW-620 = test system: SW-620
TK-10 = test system: TK-10
U-251 = test system: U-251
UACC-257 = test system: UACC-257
UACC-62 = test system: UACC-62
UO-31 = test system: UO-31
XF498 = test system: XF498

Measured: GI50

NNC(=O)C(=O)N/N=C1\CCCC1C(=O)CCC(=O)Nc1cccc(Cl)c1 (stereo not given)
inactive: 786-0 > 100 µM | A549 > 100 µM | ACHN > 100 µM | CCRF-CEM > 100 µM | COLO 205 > 100 µM | DLD-1 > 100 µM | DMS-114 > 100 µM | EKVX > 100 µM | HCC 2998 > 100 µM | HCT-116 > 100 µM | HL-60 > 100 µM | HOP-18 > 100 µM | HOP-62 > 100 µM | HOP-92 > 100 µM | HT-29 > 100 µM | IGROV-1 > 100 µM | KM-20L2 > 100 µM | KM12 > 100 µM | LOX IMVI > 100 µM | LXFL 529 > 100 µM | M14 > 100 µM | M19-MEL > 100 µM | MOLT-4 > 100 µM | Malme-3M > 100 µM | NCI-H226 > 100 µM | NCI-H23 > 100 µM | NCI-H460 > 100 µM | OVCAR-3 > 100 µM | OVCAR-4 > 100 µM | OVCAR-5 > 100 µM | OVCAR-8 > 100 µM | RPMI-8226 > 100 µM | RXF 393 > 100 µM | RXF 631 > 100 µM | SF-268 > 100 µM | SF-295 > 100 µM | SK-MEL-28 > 100 µM | SK-MEL-2 > 100 µM | SK-MEL-5 > 100 µM | SN12C > 100 µM | SNB-19 > 100 µM | SNB-75 > 100 µM | SNB-78 > 100 µM | SW-620 > 100 µM | TK-10 > 100 µM | U-251 > 100 µM | UACC-257 > 100 µM | UACC-62 > 100 µM | UO-31 > 100 µM | XF498 > 100 µM
